Measurements as given in patent publication US12241094B2, “Phenazine degrading agents and related compositions, methods and systems for interfering with viability of bacteria” (priority 2016, dated 2025).
“Also recorded” adds a separate entry of the source. Marks after values point to notes of the source that are not given here.

Key:
PodA30-162 = test: Alternative substrate utilization by PodA; type: biochemical, Mycobacterium fortuitum; conditions: for demethylation of alternative substrate by PodA30-162 (HPLC end point): 50 μg mL^−1 PodA30-162, 4 hours, dark
Description: Chemical formula diagrams of methylated substrates and their expected demethylated products, based on the prediction model, are shown, wherein arrows indicate demethylation catalyzed by PodA. Mixtures were analyzed by HPLC (right graphs) after 4 hours to determine the resulting products of each reaction. Standards for each product were run to determine retention times (indicated for each molecule with arrows). Only N-methylated phenazines were altered by incubation with PodA30-162. […] PMS, phenazine methosulfate.
Enzyme activity and analysis. PYO demethylation by PodA30-162 was first determined by HPLC analysis as described previously (6, 9). To detect formaldehyde evolution, 150 nM protein was mixed with 50 μM PYO in 1 mL of 20 mM Tris pH 7.6 amended with 200 μL Nash reagent (2 M ammonium acetate, 50 mM acetic acid, 20 mM acetylacetone) and incubated at 55° C. until the reaction proceeded to completion (37, 38). The products were determined by HPLC using the same method as used for phenazine quantification. To monitor the formation of reduced phenazine, protein and 50 μM PYO were placed into an anaerobic chamber (Coy Laboratory Products) under an atmosphere of H2/N2 (5:95) and left overnight before allowing the reaction to proceed. […] A BioTek Synergy 4 microplate reader (BioTek) plate reader in the anaerobic chamber was used to measure the emission spectrum of products with excitation at 250 nm. […] Reaction progress was monitored by measuring absorbance at 313 nm (40) every 0.5 seconds for 5 minutes. […] Kinetic parameters were calculated in Microsoft Excel using the Solver plug-in and fitting data to ideal Michaelis-Menton plots with non-linear regression of experimental data (41). For measurements of the rate of methoxy-PMS demethylation, 300 nM protein was used and methoxy-PMS loss from the reaction mixture was monitored at 500 nm wavelength. […] The stimulatory effects of flavin or 2-oxoglutarate addition was determined by adding 25 μM flavin or 2-oxoglutarate to 20 μM PYO and 15 nM PodA30-162 and monitoring the reaction. […]

[1] = tested on: P. aeruginosa PA14 biofilms; test: Biofilm formation, surface coverage (chambered coverglass, DAPI); type: cell-based; conditions: 5 hours; PodA30-162 2 μg mL^−1, DNase 20 μg mL^−1; vs. PodA-inactive
Description: Biofilm experiments. For all experiments involving inactivated PodA, either the E154A mutant or PodA30-162 that was subjected to a 1 hour treatment at 98° C. was used. To test the ability of PodA30-162 to degrade PYO in the presence of DNA, genomic DNA (gDNA) from P. aeruginosa PA14 was used in modified versions of previously described assays (59). For experiments using DNA pellets, 0.5 mg of gDNA was pelleted in the presence of 300 mM sodium acetate, pH 5.2 and 70% ethanol. Pellets were washed with 70% ethanol and dried. 200 μL of 800 μM PYO was added to the gDNA pellet without mixing and left to sit at room temperature for 6 hours to allow for diffusion of PYO into the gDNA pellet. The pellet was washed once with 70% EtOH, and submerged in a solution containing 10 mM Tris, pH 7.0 and 40% isopropanol. The pellet remained blue, consistent with an association of PYO with DNA. PodA30-162 was added to the isopropanol solution to a final concentration of 2 μg mL^−1 and left to sit for 3 hours to allow for the reaction to proceed. Tubes were imaged before and after PodA30-162 treatment. For experiments using solubilized gDNA, a 400 μg mL^−1 solution of gDNA was mixed with PYO and allowed to equilibrate for 6 hours. The PYO gDNA mixture was amended with 1 μg mL^−1 PodA30-162 and loss of PYO was monitored on a BioTek Synergy 4 microplate reader (BioTek) plate reader at 690 nm. Standards were included to quantify PYO loss over time. To assess biofilm formation in the presence of PodA30-162, biofilms were grown in Nunc Lab-Tek chambered coverglass slides (8-well, 0.8 cm^2 area, supplier #155411) using a modified protocol (22). PA14 was inoculated into succinate minimal medium and grown overnight to stationary phase. Cells were resuspended in fresh medium and diluted to a starting OD500 of 0.5 in succinate minimal medium. PodA30-162 (2 μg mL^−1, final concentration) or DNase (20 μg mL^−1) (22) was added and 250 μL was added to each well of the 8-well chambered coverglass. Cultures were grown for 5 hours at 37° C. and 100 rpm (Innova 44 shaking incubator, New Brunswick) in a humidified chamber. After incubation, liquid was removed from each well by drawing with a pipet tip placed in the corner of each well and chambers were washed twice with 400 μL of biofilm wash (Tris buffer, pH 7.6 and 100 mM NaCl) to remove planktonic and loosely bound cells. Attached biomass was stained by adding 450 μL biofilm wash containing 10 μg mL^−1 DAPI (4′,6-diamidino-2-phenylindole) (Santa Cruz Biotechnology). Surface associated biomass was imaged on a Leica TCS SPE confocal microscope with a ACS APO 40×/1.15 oil immersion objective. A 405 nm solid-state laser was used for excitation, and data was collected from 420-500 nm. […]

PA14 [2] = test: Redox cycles over 7 days and support of survival (Table 1); type: cell-based, P. aeruginosa
[3] = oxidized form, values from references a, c, d; cited from earlier work
PA14 [4] = test: Reduction of redox-active compounds by PA14 (Table 1); type: cell-based, P. aeruginosa
[5] = PYO demethylation by purified PodA30-162 and mutants (spectrophotometric/HPLC); type: biochemical; conditions: PYO demethylation; 60 nM mutant protein
Description: Enzyme activity and analysis. PYO demethylation by PodA30-162 was first determined by HPLC analysis as described previously (6, 9). To detect formaldehyde evolution, 150 nM protein was mixed with 50 μM PYO in 1 mL of 20 mM Tris pH 7.6 amended with 200 μL Nash reagent (2 M ammonium acetate, 50 mM acetic acid, 20 mM acetylacetone) and incubated at 55° C. until the reaction proceeded to completion (37, 38). The products were determined by HPLC using the same method as used for phenazine quantification. To monitor the formation of reduced phenazine, protein and 50 μM PYO were placed into an anaerobic chamber (Coy Laboratory Products) under an atmosphere of H2/N2 (5:95) and left overnight before allowing the reaction to proceed. To generate reduced PYO and 1-OH-PHZ, 50 μM were mixed with 1 mM sodium dithionite. The formation of reduced phenazine products was assayed visually under UV illumination (39). A BioTek Synergy 4 microplate reader (BioTek) plate reader in the anaerobic chamber was used to measure the emission spectrum of products with excitation at 250 nm. To determine the activity of PodA30-162 in the presence of glycerol, salts, or varying pH, 30 nM protein was suspended in 500 μL buffer, 40 μM PYO was mixed with 2× solution containing the buffer of interest (500 μL), and solutions were preheated to 30 C. For pH range measurements, the following buffers were used (40 mM, adjusted with KOH): acetic acid, pH 4.9; MES, pH 5.4 and 5.7; HEPES, pH 6.1; Tris, pH 6.9 and 7.5; Bicine, pH 7.8, 8.3 and 8.7; CHES, pH 9.4. To measure reaction rates, cuvettes containing the 2×PYO solution were placed in a Evolution 260Bio UV-Vis spectrophotometer (Thermo Scientific) and 500 μL of 30 nM protein was added at time 0 (15 nM protein and 20 μM PYO, final concentration). Reaction progress was monitored by measuring absorbance at 313 nm (40) every 0.5 seconds for 5 minutes. To measure kinetic parameters (kcat, Km) 15 nM protein was used in a reaction buffer of Bicine, pH 7.8; reactions were monitored as before with measurements every 0.2 seconds. The rate from the first 10 seconds of the reaction was used for the determination of kinetic parameters. Kinetic parameters were calculated in Microsoft Excel using the Solver plug-in and fitting data to ideal Michaelis-Menton plots with non-linear regression of experimental data (41). For measurements of the rate of methoxy-PMS demethylation, 300 nM protein was used and methoxy-PMS loss from the reaction mixture was monitored at 500 nm wavelength. Methoxy-PMS was purchased from TCI America. For assays with mutant proteins, 60 nM protein was used. The stimulatory effects of flavin or 2-oxoglutarate addition was determined by adding 25 μM flavin or 2-oxoglutarate to 20 μM PYO and 15 nM PodA30-162 and monitoring the reaction. Experiments testing alternative substrates were carried out using 1 mL reaction volumes containing 20 mM Tris (pH 7.6) and 50 μg mL^−1 PodA30-162. Alternative substrates tested were 10-methylphenothiazine (AlfaAesar), phenazine methosulfate (AlfaAesar), methoxyphenazine methosulfate (TCI America), and 4-keto-N-ethylphenazine. 4-keto-N-ethylphenazine was synthesized from phenazine ethosulfate (Sigma-Aldrich) by incubating under fluorescent light overnight followed by purification by HPLC as described (6, 42). As phenazine methosulfate is light sensitive and spontaneously converts to PYO in the presence of light, all reactions were carried out in the dark, and activity was assessed by end point analysis by HPLC after 4 hours (9).

## COS(=O)(=O)[O-].COc1cccc2c1nc1ccccc1[n+]2C [methoxy-PMS, methoxyphenazine methosulfate]
PodA30-162; 300 nM protein, 500 nm
  methoxy-PMS demethylation over time: initial burst of activity followed by a slower steady state; also recorded: reaction rate slows significantly after an initial burst

## CCn1c2cccc(=O)c-2nc2ccccc21 [4-keto-N-ethylphenazine]
PodA30-162
  demethylation of alternative substrate by PodA30-162 (HPLC end point): not demethylated or de-ethylated

## CN1c2ccccc2Sc2ccccc21 [10-methylphenothiazine]
PodA30-162
  demethylation of alternative substrate by PodA30-162 (HPLC end point): not demethylated or de-ethylated

## DNase [reference compound]
[1]
  biofilm surface coverage: inhibited biofilms; also recorded: decreased surface coverage

## O=C1c2ccc(S(=O)(=O)O)cc2C(=O)c2ccc(S(=O)(=O)O)cc21 [2,6-AQDS]
PA14 [2]
  # of Redox cycles over 7 days: No cycle
  Support survival?: No
[3]
  E^0, (vs. NHE): −184^d mV
PA14 [4]
  Reduction by PA14?: Yes (very slowly)

## O=C(O)c1cccc2nc3ccccc3nc12 [PCA, Phenazine-1-carboxylate]
PA14 [2]
  # of Redox cycles over 7 days: 22
  Support survival?: Yes
[3]
  E^0, (vs. NHE): −114^a mV
PA14 [4]
  Reduction by PA14?: Yes

## C[n+]1ccc(-c2cc[n+](C)cc2)cc1 [Paraquat]
PA14 [2]
  # of Redox cycles over 7 days: No cycle
  Support survival?: No
[3]
  E^0, (vs. NHE): −446^e mV
PA14 [4]
  Reduction by PA14?: No

B1: Y156F (protein)
chain: MTGKTKPAIIGGVAITALAAAGLGVWLFTDGRGGRSTTEPVTMTLDVKNDQVAKHDFGKPGMDVGDMDIFSDILSVDGKQVGYDGGACFFTNVTPDNPMTYCELTIHLDAGEIFARSLTPHTLAPFTMAITGGTGEYANSKGELTVSGVATPDEKFELKLTK
[5]
  wild type activity: ~25%
